# Experimental data taken from US20150044244A1, “COMBINED FACILITATOR, ANTIGEN AND DNA VACCINE FOR PREVENTING AND TREATING AUTOIMMUNE DISEASES” (BEIJING ADVANCCINE BIOTECHNOLOGY CO. LTD., priority 2011, published 2015).
# Tested on: naive CD4+CD25− T cells
# Test: In vitro induction of iTregs by DCreg with cytokine blockade
# Type: cell-based, mice
# Details: blockade during co-culture (stage 1)
# Method: In vitro T cell priming assays. To generate CD4^+CD25^−Foxp3^+ cells in vitro, Naive CD11c^+ dendritic cells (2×10^5) were cultured in 6-well, and stimulated with pVAX-Derp1 (10 μg/ml) plus Derp1 peotein (10 μg/ml) in the present of anti-IL10 or TGF-β for 48 hrs. Three groups of dendritic cells pretreated were added to culture medium with naive CD4^+CD25^− T cells (1×10^6) in RPMI 1640 each 48 hrs for 3 times. And then GFP expression in CD4^+CD25^− T cells were analyzed by FACS. To check the roles of cytokines during DCreg induce iTregs, we co-cultured CD11c^+ DC pretreated with pVAX-Derp1 (10 μg/ml) plus Derp1 peotein (10 μg/ml) with naive T cells, synchronously, plus anti-IL-10, anti-TGF-β or TGF-β receptor inhibitor, SB-525334 (14.3 nM) each 48 hrs for 3 times. […]
# As reported, blockade of TGF-β and IL-10 could demolish the development and suppressive function of iTregs. […] The roles of TGF-β and IL-10 were detected during the induction of iTregs by DCreg in vitro. GFP expression in CD4^+CD25^− T cells was detected after 72 hrs of co-culture with CD11C^+ DCreg 3 times each two days in the presence of anti-IL-10 or anti-TGF-β as stage 1 in FIG. 13A. […]
structure (smiles),measurement,value
Cc1cccc(-c2[nH]c(C(C)(C)C)nc2-c2ccc3nccnc3c2)n1 [SB-525334],generation of CD4+CD25−GFP+ iTregs by DCreg,could decrease the iTreg induction
